Reference: patent publication US20120095055A1, “HEXAHYDROCYCLOPENTYL[f]INDAZOLE 5-HYDROXYMETHYL ETHANOLS AND DERIVATIVES THEREOF AS SELECTIVE GLUCOCORTICOID RECEPTOR MODULATORS” (Merck Sharp & Dohme, Corp., priority 2009, published 2012)

Target: T1, human GR (Homo sapiens, UniProt P04150)
T1 construct: naturally expresses the human GR; endogenous in cells
T1 sequence (P04150 1-777): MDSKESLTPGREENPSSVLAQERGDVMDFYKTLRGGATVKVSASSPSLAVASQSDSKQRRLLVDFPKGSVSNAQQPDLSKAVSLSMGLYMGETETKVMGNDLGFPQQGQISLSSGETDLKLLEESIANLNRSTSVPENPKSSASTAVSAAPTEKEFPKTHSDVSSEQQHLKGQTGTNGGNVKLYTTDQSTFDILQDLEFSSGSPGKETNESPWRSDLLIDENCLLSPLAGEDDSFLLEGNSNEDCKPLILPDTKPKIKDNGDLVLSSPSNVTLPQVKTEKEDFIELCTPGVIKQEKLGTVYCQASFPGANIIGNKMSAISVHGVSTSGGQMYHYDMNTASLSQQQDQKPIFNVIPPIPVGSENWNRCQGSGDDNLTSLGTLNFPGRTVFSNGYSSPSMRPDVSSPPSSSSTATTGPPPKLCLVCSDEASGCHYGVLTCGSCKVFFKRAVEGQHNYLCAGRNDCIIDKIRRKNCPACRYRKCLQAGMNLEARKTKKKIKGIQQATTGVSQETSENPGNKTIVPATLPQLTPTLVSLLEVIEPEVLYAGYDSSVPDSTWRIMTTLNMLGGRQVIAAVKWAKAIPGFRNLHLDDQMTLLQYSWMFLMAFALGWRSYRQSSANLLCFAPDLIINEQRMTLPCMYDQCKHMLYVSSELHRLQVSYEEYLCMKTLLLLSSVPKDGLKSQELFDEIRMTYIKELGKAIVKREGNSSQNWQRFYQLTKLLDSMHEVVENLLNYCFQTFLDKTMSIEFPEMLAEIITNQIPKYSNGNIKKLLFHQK
Assay: Transrepression Assay (GITAR), TNFα-β-lactamase reporter in U937 cells
Assay type: cell-based
Settings: for Emax: U-937, activity repressed by 100 nM dexamethasone set as 100%; for EC50: inflection point (IP), TNFα promoter β-lactamase reporter, PMA/LPS; for Transrepression U937 Cells GITAR Emax (%): activity repressed by 100 nM dexamethasone set as 100%
Description: This assay assesses the ability of test compounds to control transcription from the TNFα-β-lactamase reporter gene in U937 cells, a human myelomonocytic leukemia cell line that naturally expresses the human GR. The assay measures compound dependent-repression of the TNFa promoter linked to a reporter gene.
The human U937 cells that had been stablely transfected with the TNF-α promoter driving β-lactamase are used for this assay. U937 cells contain an endogenous glucocorticoid receptor (GR). Cells are maintained in RPMI 1640 Growth medium (Gibco Cat#11875-093) containing 25 mM HEPES, 10% FBS, 2 mM L-Glutamine, 1 mM Sodium pyruvate, 25 μg/ml Gentamicin (Gibco Cat#15710-064), 1:1000 2-Mercaptoethanol (Gibco Cat#21985-023) and 0.8 mg/ml G418 (Gibco Cat#10131-027). The density of the cells in the flask needs to be about 1×106-3×10^6/ml at the time of harvest. Usually, the cells are split to 1.2˜1.4×10^5/ml (1:10) 3 days prior to the assay. 50,000 cells/well are plated in 96 well black-walled plates the day of assay. Test compounds are added 10 μL/well, and cells are incubated at 37° C. for 30˜45 min. For assaying compounds, first dilute 1:10 in DMSO to make 1 mM, then further dilute 1:100 in medium to make 10× stock prior to adding to the cells. Add 50 ng/ml PMA (Sigma, cat# P8139) 10 μL/well to a final concentration 5 ng/ml, and 1 μg/ml LPS (Sigma, cat# L4130) 10 μL/well to a final concentration 100 ng/ml. Incubate cells at 37° C. overnight for ˜18 hr. PMA is stored frozen as 100 μg/ml stock in DMSO. Dilute 1:10 in DMSO for a working stock of 10 μg/ml and store at −20 C. For assaying, dilute the 10 μg/ml working stock 1:200 in medium to make a 10× solution (50 ng/ml). Store frozen LPS at 1 mg/ml in PBS, dilute 1:1000 in medium to make 10× (1 μg/ml) for the assay. Add 6× loading buffer (CCF2-AM) 20 μL/well, and incubate at room temperature for 70˜90 min. […] The activity repressed by 100 nM dexamethasone alone is set as 100% activity.

Emax [%] | EC50 [nM] | Transrepression U937 Cells GITAR Emax (%) | Compound
93.3 | 37.6 |  | C[C@]12Cc3cnn(-c4ccc(F)cc4)c3C=C1CC[C@@]2(CO)CC(O)c1ccccc1Cl (single isomer, unassigned) [Example 3a]
104 | 35.7 |  | C[C@]12Cc3cnn(-c4ccc(F)cc4)c3C=C1CC[C@@]2(CO)CC(O)c1cc(F)cc(Cl)c1 (single isomer, unassigned) [Example 6a]
 | 1510 | 51.8 | COc1cccnc1C(O)C[C@]1(CO)CCC2=Cc3c(cnn3-c3cccc(F)c3)C[C@@]21C (single isomer, unassigned) [Example 26b]
85.4 | 101 |  | COc1cccnc1C(O)C[C@]1(CO)CCC2=Cc3c(cnn3-c3ccc(F)cc3)C[C@@]21C (single isomer, unassigned) [Example 21a]
 | 29 | 91.8 | Cc1cccc(C(O)C[C@]2(CO)CCC3=Cc4c(cnn4-c4ccc(F)cc4)C[C@@]32C)c1 (single isomer, unassigned) [Example 5b]
 | 34.9 | 93.0 | C[C@]12Cc3cnn(-c4ccc(F)cc4)c3C=C1CC[C@@]2(CO)CC1OC(=O)c2ccccc21 (single isomer, unassigned) [Example 12b]
 | 334 | 71.9 | C[C@]12Cc3cnn(-c4cccc(F)c4)c3C=C1CC[C@@]2(CO)CC(O)c1cccnc1 (single isomer, unassigned) [Example 27b]
 | 137 | 85.0 | Cc1ccc(C(O)C[C@]2(CO)CCC3=Cc4c(cnn4-c4ccc(F)cc4)C[C@@]32C)cc1 (single isomer, unassigned) [Example 2a]
85.4 | 21.4 |  | Cc1ccc(C(O)C[C@]2(CO)CCC3=Cc4c(cnn4-c4ccc(F)cc4)C[C@@]32C)nc1 (stereo partly drawn) [Example 16, 2-[(4αS,5R)-1-(4-fluorophenyl)-5-(hydroxymethyl)-4α-methyl-1,4,4α,5,6,7-hexahydrocyclopenta[f]indazol-5-yl]-1-(5-methylpyridin-2-yl)ethanol]
104 | 28.2 |  | C[C@]12Cc3cnn(-c4ccc(F)cc4)c3C=C1CC[C@@]2(CO)CC(O)c1ccccc1F (stereo partly drawn) [Example 4, 1-(2-fluorophenyl)-2-[(4αS,5R)-1-(4-fluorophenyl)-5-(hydroxymethyl)-4α-methyl-1,4,4α,5,6,7-hexahydrocyclopenta[f]indazol-5-yl]ethanol]
 | 18 | 96.4 | C[C@]12Cc3cnn(-c4ccc(F)cc4)c3C=C1CC[C@@]2(CO)CC(O)c1ccccc1 (single isomer, unassigned) [Example 13b]
 | 186 | 69.8 | CC(O)(C[C@]1(CO)CCC2=Cc3c(cnn3-c3ccc(F)cc3)C[C@@]21C)c1cccnc1 (single isomer, unassigned) [Example 25b]
79.9 | 133 |  | C[C@]12Cc3cnn(-c4ccc(F)cc4)c3C=C1CC[C@@]2(CO)CC(O)C1CC1 (single isomer, unassigned) [Example 20a, 1-cyclopropyl-2-[(4αS)-1-(4-fluorophenyl)-5-(hydroxymethyl)-4α-methyl-1,4,4α,5,6,7-hexahydrocyclopenta[f]indazol-5-yl]ethanol]
86.1 | 75.3 |  | C[C@]12Cc3cnn(-c4ccc(F)cc4)c3C=C1CC[C@@]2(CO)CC(O)c1ccncc1 (single isomer, unassigned) [Example 17a]
90.9 | 18.7 |  | C[C@]12Cc3cnn(-c4ccc(F)cc4)c3C=C1CC[C@@]2(CO)CC(O)c1ccc(F)cn1 (single isomer, unassigned) [Example 22a]
89.2 | 16.5 |  | C[C@]12Cc3cnn(-c4ccc(F)cc4)c3C=C1CC[C@@]2(CO)CC(O)c1ncccc1F (single isomer, unassigned) [Example 10a]
94.4 | 235 |  | Cc1ccc(C(O)C[C@]2(CO)CCC3=Cc4c(cnn4-c4ccc(F)cc4)C[C@@]32C)cc1 (single isomer, unassigned) [Example 2b]
82.2 | 1130 |  | CC(C)C(O)C[C@]1(CO)CCC2=Cc3c(cnn3-c3ccc(F)cc3)C[C@@]21C (single isomer, unassigned) [Example 14a]
61.3 | 293 |  | CC(O)(C[C@]1(CO)CCC2=Cc3c(cnn3-c3ccc(F)cc3)C[C@@]21C)c1cccnc1 (single isomer, unassigned) [Example 25a]
102 | 0.6 |  | C[C@]12Cc3cnn(-c4ccc(F)cc4)c3C=C1CC[C@@]2(CO)CC(O)c1cc(F)cc(F)c1 (stereo partly drawn) [Example 9, 1-(3,5-difluorophenyl)-2-[(4αS,5R)-1-(4-fluorophenyl)-5-(hydroxymethyl)-4α-methyl-1,4,4α,5,6,7-hexahydrocyclopenta[f]indazol-5-yl]ethanol]
91.2 | 32.7 |  | C[C@]12Cc3cnn(-c4cccc(F)c4)c3C=C1CC[C@@]2(CO)CC(O)c1ccccn1 (single isomer, unassigned) [Example 19a]
64.2 | 598 |  | C[C@]12Cc3cnn(-c4cccc(F)c4)c3C=C1CC[C@@]2(CO)CC(O)c1cccnc1 (single isomer, unassigned) [Example 27a]
 | 25.7 | 97.7 | C[C@]12Cc3cnn(-c4ccc(F)cc4)c3C=C1CC[C@@]2(CO)CC(O)C1CCCCC1 (single isomer, unassigned) [Example 18b, 1-cyclohexyl-2-[(4αS)-1-(4-fluorophenyl)-5-(hydroxymethyl)-4α-methyl-1,4,4α,5,6,7-hexahydrocyclopenta[f]indazol-5-yl]ethanol]
 | 573 | 72.0 | C[C@]12Cc3cnn(-c4ccc(F)cc4)c3C=C1CC[C@@]2(CO)CC(O)C1CC1 (single isomer, unassigned) [Example 20b, 1-cyclopropyl-2-[(4αS)-1-(4-fluorophenyl)-5-(hydroxymethyl)-4α-methyl-1,4,4α,5,6,7-hexahydrocyclopenta[f]indazol-5-yl]ethanol]
 | 59.7 | 83.3 | C[C@]12Cc3cnn(-c4ccc(F)cc4)c3C=C1CC[C@@]2(CO)CC(O)c1ccncc1 (single isomer, unassigned) [Example 17b]
81.2 | 54.3 |  | C[C@]12Cc3cnn(-c4ccc(F)cc4)c3C=C1CC[C@@]2(CO)CC(O)C(F)(F)F (single isomer, unassigned) [Example 28a]
 | 68.8 | 98.3 | C[C@]12Cc3cnn(-c4ccc(F)cc4)c3C=C1CC[C@@]2(CO)CC(O)c1cc(F)cc(Cl)c1 (single isomer, unassigned) [Example 6b]
 | 44.7 | 98.4 | C[C@]12Cc3cnn(-c4ccc(F)cc4)c3C=C1CC[C@@]2(CO)CC(O)c1cccc(C(F)(F)F)c1 (single isomer, unassigned) [Example 7b]
78.8 | 93.1 |  | C[C@]12Cc3cnn(-c4ccc(F)cc4)c3C=C1CC[C@@]2(CO)CC1OC(=O)c2ccccc21 (single isomer, unassigned) [Example 12a]
 | 4 | 93.9 | C[C@]12Cc3cnn(-c4ccc(F)cc4)c3C=C1CC[C@@]2(CO)CC(O)c1ncccc1F (single isomer, unassigned) [Example 10b]
